Laboratory results as given in US20110065734A1, “NOVEL BIFUNCTIONAL COMPOUNDS WHICH INHIBIT PROTEIN KINASES AND HISTONE DEACETYLASES” (4SC AG, priority 2007, published 2011).
Structures can show the parent of a compound that is named as a salt. Where two headings read alike, the source gives them in different places.

Columns and labels:
Bcr-abl (wt) = molecular target: T1, Bcr-abl (wt) (Homo sapiens, UniProt P00519); assay: Biochemical flash-plate based kinase assay, Bcr-abl (wt); conditions: only a range over the listed compounds is given; read-out: Bcr-abl (wt) inhibition IC50
T1 construct: purchased ProQinase, Freiburg/Germany
T1 sequence (P00519 118-553 limits assumed): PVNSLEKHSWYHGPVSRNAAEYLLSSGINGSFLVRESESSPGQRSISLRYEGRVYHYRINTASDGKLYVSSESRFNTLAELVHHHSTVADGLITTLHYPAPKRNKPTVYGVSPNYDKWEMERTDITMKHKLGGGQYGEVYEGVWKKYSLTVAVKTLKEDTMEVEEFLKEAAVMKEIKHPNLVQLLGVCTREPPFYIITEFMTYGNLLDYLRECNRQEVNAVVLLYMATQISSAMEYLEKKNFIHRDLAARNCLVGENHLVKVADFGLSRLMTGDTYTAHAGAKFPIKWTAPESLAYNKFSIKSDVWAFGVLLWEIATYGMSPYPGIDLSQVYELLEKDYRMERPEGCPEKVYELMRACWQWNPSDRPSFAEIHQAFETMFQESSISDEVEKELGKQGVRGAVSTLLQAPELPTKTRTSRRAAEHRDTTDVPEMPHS
From the text: (§1) Active kinase proteins were either obtained from commercial suppliers (Abl, PDGF-Rβ ProQinase, Freiburg/Germany; AblT^315I: Millipore/Upstate, Billerica/USA; PKA: InvitroGen/Panvera, Carlsbad/USA) or prepared in-house (KDR, c-terminal kinase domain AA790-1356, HER2 c-terminal kinase domain, EGFR/HER1 C-terminal kinase domain). As substrates, poly-AGKY for Abl, AblT^315I and PDGF-Rβ (#P-1152 Sigma, Munich/Germany), poly-GluTyr for KDR, HER2 and EGFR/HER1 (#P-0275, Sigma, Munich/Germany) or a PKA substrate peptide for PKA (#12-394, Millipore/Upstate, Billerica/USA) were used. Into each well of a 96-well flashplate (#SMP-200 in the case of Abl, Abl T^315I, PDGF-Rβ, EGFR, HER2 and KDR, #SMP-103 in the case of PKA; Perkin Elmer, Waltham/USA) kinase protein was diluted into kinase assay buffer (50 mM HEPES pH 7.5, 3 mM MgCl2, 3 mM MnCl2, 1 mM DTT, 3 μM sodium orthovanadate, 5 μg/ml PEG 8000) containing the appropriate substrate (final volume 89 μl). DMSO vehicle or compounds are added as 1 μl/well prior to the initiation of the kinase reaction by 10 μl 1 mM [^33P]-γATP (4×10^5 cpm). Reactions were allowed to proceed for a time predetermined to be linear on a time versus phosphorylation plot (30 min for PKA, otherwise 80 min) and terminated with the addition of an equal volume of phosphoric acid (2% H3PO4 for 5 minutes). Plates were washed three times with 0.9% w/v NaCl and quantitated by liquid scintillation counting.

Bcr-abl T^315I = molecular target: T2, Bcr-abl T^315I (Homo sapiens, UniProt P00519, T315I); assay: Biochemical flash-plate based kinase assay, Bcr-abl T315I; conditions: only a range over the listed compounds is given; read-out: Bcr-abl T^315I inhibition IC50
T2 construct: purchased Millipore/Upstate, Billerica/USA
From the text: as §1

A549 NSCLC cell line = assay: Cellular cytotoxicity assay (Alamar Blue), A549; format: cell-based; conditions: Homo sapiens
Experimental: (§2) The anti-proliferative activity of the chimeric HDAC and protein kinase inhibitory chimeric compounds of the present invention was evaluated using HeLa cervical carcinoma, A549 NSCLC, SKOV3 ovarian carcinoma, Cal27 head and neck cancer, K562 chronic myeloid leukemia (CML) and EOL1 acute hypereosinophilic myeloid leukemia, cell lines. For quantification of cellular proliferation/living cells the Alamar Blue (Resazurin) cell viability assay was applied (O'Brien et al. Eur Biochem. 267, 5421-5426, 2000). In this assay Resazurin is reduced to the fluorescent resorufin by cellular dehydrogenase activity, correlating with viable, proliferating cells. The examples were dissolved as 20 mM solutions in dimethylsulfoxide (DMSO) and subsequently diluted in semi-logarithmic steps. Cell lines were seeded at respective density into 96 well flat bottom plates in a volume of 200 μl per well. 24 h after seeding 1 μl each of the compound dilutions were added into each well of the 96 well plate. Each compound dilution was tested as quadruplicates. Wells containing untreated control cells were filled with […] DMEM medium containing 0.5% v:v DMSO. The cells were then incubated with the substances for 72 h at 37° C. in a humidified atmosphere containing 5% carbon dioxide. To determine the viability of the cells, 20 μl of an Resazurin solution (Sigma; 90 mg/l) were added. After 4 h incubation at 37° C. the fluorescence was measured at an extinction of 544 nm and an emission of 590 nm. For the calculation of the cell viability the emission value from untreated cells was set as 100% viability and the emission rates of treated cells were set in relation to the values of untreated cells. Viabilities were expressed as % values. The corresponding IC50 values of the compounds for cytotoxic activity are determined from the concentration-effect curves by means of non-linear regression.

PDGFRβ = molecular target: T3, PDGFRβ (Homo sapiens, UniProt P09619); assay: Biochemical flash-plate based kinase assay, PDGFRβ; conditions: only a range over the listed compounds is given; read-out: PDGFRβ inhibition IC50
T3 construct: purchased ProQinase, Freiburg/Germany
T3 sequence (P09619 33-1106): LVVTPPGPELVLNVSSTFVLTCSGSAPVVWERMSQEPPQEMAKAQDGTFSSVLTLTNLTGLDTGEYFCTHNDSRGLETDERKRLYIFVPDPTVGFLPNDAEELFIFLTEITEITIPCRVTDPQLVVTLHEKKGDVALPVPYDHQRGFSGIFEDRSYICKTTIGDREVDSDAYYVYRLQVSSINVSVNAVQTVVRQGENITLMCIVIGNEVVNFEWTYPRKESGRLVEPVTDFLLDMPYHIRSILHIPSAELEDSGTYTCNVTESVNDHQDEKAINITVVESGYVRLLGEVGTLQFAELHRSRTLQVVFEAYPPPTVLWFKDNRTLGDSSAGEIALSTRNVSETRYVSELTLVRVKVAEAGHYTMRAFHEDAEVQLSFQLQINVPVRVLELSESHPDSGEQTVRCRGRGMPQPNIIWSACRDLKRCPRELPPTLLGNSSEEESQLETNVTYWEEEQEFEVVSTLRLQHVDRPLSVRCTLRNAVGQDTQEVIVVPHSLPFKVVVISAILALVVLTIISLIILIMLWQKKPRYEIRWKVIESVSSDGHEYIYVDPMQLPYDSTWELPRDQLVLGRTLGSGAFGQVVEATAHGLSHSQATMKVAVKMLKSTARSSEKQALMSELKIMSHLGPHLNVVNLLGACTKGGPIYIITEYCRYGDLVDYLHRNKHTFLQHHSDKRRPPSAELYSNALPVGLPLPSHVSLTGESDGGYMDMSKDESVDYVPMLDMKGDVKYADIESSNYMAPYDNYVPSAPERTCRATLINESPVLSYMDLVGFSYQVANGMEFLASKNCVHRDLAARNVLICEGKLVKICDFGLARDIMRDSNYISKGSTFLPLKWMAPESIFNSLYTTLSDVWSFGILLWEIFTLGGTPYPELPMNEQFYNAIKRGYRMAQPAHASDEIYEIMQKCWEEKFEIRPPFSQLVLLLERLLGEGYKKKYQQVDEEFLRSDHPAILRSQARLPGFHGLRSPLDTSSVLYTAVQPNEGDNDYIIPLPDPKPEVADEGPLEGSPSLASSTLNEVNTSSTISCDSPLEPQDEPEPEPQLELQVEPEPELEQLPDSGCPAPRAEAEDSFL
From the text: as §1

[1] = test system: histone H3 hyperacetylation in HeLa cervical carcinoma cells; assay: Cellular histone H3 hyperacetylation assay; format: cell-based; conditions: Homo sapiens, 24 h, only a range over the listed compounds is given, read-out: Induction of histone H3 hyperacetylation in HeLa cervical carcinoma cells EC50
From the text: To assess the cellular efficacy of a histone deacetylase inhibitor in vitro, an assay was set up in black clear-bottom 96-well plates and optimized for use on the Cellomics “ArrayScan II” platform for a quantitative calculation of histone acetylation. The protocol uses a polyclonal rabbit antibody, specifically binding to acetylated lysine 1-20 of human histone H3 on fixed cells with an Alexa Fluor 488 labeled goat anti rabbit-IgG used for counterstaining (Beckers et al. Int J. Cancer 121, 1138, 2007).
5×10^3 HeLa cervical carcinoma cells/well (ATCC. CCL-2) in 200 μl Dulbecco rs modified Eagle's medium (DMEM) containing 10% fetal calf serum are seeded at day 1 in Packard view plates and incubated for 24 h under standard cell culture conditions. On day 2, 1 μl test compound (200× final concentration) is added and incubation continued for further 24 h. On day 3, the culture medium is discarded and attached cells fixed for 15 min at room temperature by addition of 100 μl fixation buffer (3.7% v:v formaldehyde in phosphate buffered saline/PBS). After discarding the fixation buffer and one wash with blocking solution (1% BSA, 0.3% Tween 20 in PBS), cells are permeabilized at room temperature by addition of 100 μl/well permeabilization buffer (30.8 mM NaCl, 0.54 mM Na2HPO4, 0.31 mM KH2PO4, 0.1% v:v Triton X-100) for 15 min at room temperature. After discarding the permeabilization buffer and washing twice with 100 μl/well blocking solution at room temperature, the 1st antibody (anti-K^1-20 histone H3 antibody, Calbiochem No. 382158) in blocking solution (50 μl/well) is added. After incubation for 1 h at room temperature, the wells are washed twice at room temperature with 100 μl/well blocking solution before addition of the 2nd antibody (goat-anti-rabbit Alexa Fluor 488; MoBiTec No. A-11008) in blocking solution (50 μl/well). After further incubation for 1 h at room temperature, wells are washed twice with 100 μl/well blocking solution at room temperature. Finally, 100 μl/well PBS are added and image analysis performed on the Cellomics “ArrayScan II” platform. For EC50 determination, the percentage of positive cells showing nuclear fluorescence is determined and EC50 calculation done from concentration-effect curves by means of non-linear regression. For calibration, a positive (reference HDAC inhibitors like SAHA or NVP LBH-589) and a negative control were included.

[2] = test system: HeLa cervical carcinoma cell line; assay: Cellular cytotoxicity assay (Alamar Blue), HeLa; format: cell-based; conditions: Homo sapiens, 72 h
Experimental: as §2

[3] = molecular target: T4, recombinant HDAC1 isolated from HEK293 cells with heterologous HDAC1 expression (Homo sapiens, UniProt Q13547); assay: Fluorimetric rHDAC1 activity assay; format: biochemical; conditions: only a range of IC50 over the compounds given; read-out: rHDAC1 inhibitory activity IC50
T4 construct: made in house
T4 sequence (Q13547 whole entry): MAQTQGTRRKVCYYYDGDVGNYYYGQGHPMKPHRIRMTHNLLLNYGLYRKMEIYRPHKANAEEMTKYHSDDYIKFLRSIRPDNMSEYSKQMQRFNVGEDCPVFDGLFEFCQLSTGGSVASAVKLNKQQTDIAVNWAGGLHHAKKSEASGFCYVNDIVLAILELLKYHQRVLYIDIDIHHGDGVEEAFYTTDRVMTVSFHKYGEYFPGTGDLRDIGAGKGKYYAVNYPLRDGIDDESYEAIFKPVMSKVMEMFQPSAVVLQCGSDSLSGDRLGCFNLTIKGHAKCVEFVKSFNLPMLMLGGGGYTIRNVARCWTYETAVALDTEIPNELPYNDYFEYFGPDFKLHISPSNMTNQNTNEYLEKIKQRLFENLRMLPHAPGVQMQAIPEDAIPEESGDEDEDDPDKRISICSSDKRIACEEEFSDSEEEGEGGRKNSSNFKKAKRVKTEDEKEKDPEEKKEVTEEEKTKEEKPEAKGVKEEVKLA

[4] = test system: Cal27 head and neck cancer cell line; assay: Cellular cytotoxicity assay (Alamar Blue), Cal27; format: cell-based; conditions: Homo sapiens
Experimental: as §2

[5] = test system: EOL1 acute hypereosinophilic myeloid leukemia cell line; assay: Cellular cytotoxicity assay (Alamar Blue), EOL1; format: cell-based; conditions: Homo sapiens, 72 h, only a range over the listed compounds is given, read-out: Cytotoxicity towards EOL1 cell line IC50
Experimental: as §2

[6] = test system: K562 chronic myeloid leukemia (CML) cell line; assay: Cellular cytotoxicity assay (Alamar Blue), K562; format: cell-based; conditions: Homo sapiens, 72 h, only a range over the listed compounds is given, read-out: Cytotoxicity towards K562 CML cell line IC50
Experimental: as §2

[7] = test system: SKOV3 ovarian carcinoma cell line; assay: Cellular cytotoxicity assay (Alamar Blue), SKOV3; format: cell-based; conditions: Homo sapiens
Experimental: as §2

[8] = A549, 72 h, only a range over the listed compounds is given, read-out: Cytotoxicity towards A549 NSCLC cell line IC50
[9] = only a range over the listed compounds is given, read-out: Cytotoxicity towards HeLa cervical cell line IC50
[10] = CAL-27, 72 h, only a range over the listed compounds is given, read-out: Cytotoxicity towards Cal27 cell line IC50

Row | SMILES | melting point [°C] | IC50 (PDGFRβ) [nM] | IC50 [3] [nM] | IC50 (A549 NSCLC cell line; [8]) [M] | IC50 [2, 9] [M] | IC50 [5] [nM] | IC50 [6] [nM] | further results
1 | Cc1ccc(NC(=O)c2ccc(/C=C/C(=O)NO)s2)cc1Nc1nc(-c2cccnc2)cs1 [[33], (E)-5-(3-(hydroxyamino)-3-oxoprop-1-enyl)-N-(4-methyl-3-(4-(pyridin-3-yl)thiazol-2-ylamino)phenyl)thiophene-2-carboxamide] | 241.6 | – | – | ≥ 2.95e-06 | – | – | – | IC50 (Bcr-abl (wt)): 2000 to 39000 nM; IC50 (Bcr-abl T^315I): 1000 to 34000 nM
2 | Cc1ccc(NC(=O)c2ccc(C(=O)NO)cc2)cc1Nc1nc(-c2cccnc2)cs1 [[20], N^1-hydroxy-N^4-(4-methyl-3-(4-(pyridin-3-yl)thiazol-2-ylamino)phenyl)terephthalamide] | 261 | 2100 to 71000 | – | ≥ 2.95e-06 | ≥ 1.15e-06 | – | – | EC50 [1]: 1700 to 10000 nM
3 | Nc1ccccc1NC(=O)/C=C/c1cccc(-c2ccc3ncnc(Nc4ccc(OCc5cccc(F)c5)c(Cl)c4)c3c2)c1 [[11], (E)-N-(2-aminophenyl)-3-(3-(4-(3-chloro-4-(3-fluorobenzyloxy)phenylamino)-quinazolin-6-yl)phenyl)acrylamide] | – | – | ≥ 35.3 | ≥ 1.1e-06 | – | – | – | IC50 [4, 10]: ≥ 2.8e-07 M
4 | CN(C(=O)c1ccc(C(=O)Nc2ccccc2N)cc1)c1ccc(Cl)c(Nc2nccc(-c3cccnc3)n2)c1 [[35], N-(2-Amino-phenyl)-N′-[4-chloro-3-(4-pyridin-3-yl-pyrimidin-2-ylamino)-phenyl]-N′-methyl-terephthalamide] | – | – | 77 to 1400 | – | – | 3 to 780 | 490 to 4070 | –
5 | O=C(/C=C/c1ccc(-c2ccc3ncnc(Nc4ccc(OCc5cccc(F)c5)c(Cl)c4)c3c2)cc1)NO [[8], (E)-3-(4-(4-(3-chloro-4-(3-fluorobenzyl-oxy)phenylamino)quinazolin-6-yl)phen-yl)-N-hydroxyacrylamide hydrochloride monohydrate] | – | – | ≥ 35.3 | – | – | – | – | IC50 (A549 NSCLC cell line; A549, 72 h, read-out: Cytotoxicity towards A549 NSCLC cell line IC50 (M)): ≥ 1.1e-06 M; IC50 ([2]; read-out: Cytotoxicity towards HeLa cervical cell line IC50 (M)): 9.1e-07 to 9.4e-06 M; IC50 ([4]; CAL-27, 72 h, read-out: Cytotoxicity towards Cal27 cell line IC50 (M)): ≥ 2.8e-07 M; IC50 ([7]; SK-OV-3, 72 h, read-out: Cytotoxicity towards SKOV3 cell line IC50 (M)): ≥ 1e-06 M
6 | C#Cc1cccc(Nc2ncnc3ccc(S(=O)(=O)n4ccc(/C=C/C(=O)NO)c4)cc23)c1 [[45], 3-{1-[4-(3-Ethynylphenylamino)quinazoline-6-sulfonyl]-1H-pyrrol-3-yl}-N-hydroxy-acrylamide] | – | – | – | ≥ 2.4e-07 | ≥ 5e-07 | – | – | IC50 [4, 10]: 1.6e-07 to 8e-06 M; IC50 ([7]; SK-OV-3, 72 h, only a range over the listed compounds is given, read-out: Cytotoxicity towards SKOV3 cell line IC50): ≥ 5.6e-07 M

Further lines, with some results ahead:

Row | melting point [°C] | IC50 (PDGFRβ) [nM] | IC50 [3] [nM] | SMILES | IC50 (A549 NSCLC cell line; [8]) [M] | IC50 [2, 9] [M] | IC50 [5] [nM] | IC50 [6] [nM] | further results
7 | – | 2100 to 71000 | – | Cc1ccc(NC(=O)c2ccc(C(=O)Nc3ccccc3N)cc2)cc1Nc1nccc(-c2cccnc2)n1 [[14], N-(2-Amino-phenyl)-N′-[4-methyl-3-(4-pyridin-3-yl-pyrimidin-2-ylamino)-phenyl]-terephthalamide compound with trifluoroacetic acid] | – | ≥ 1.15e-06 | 3 to 780 | – | –
8 | 280.5 | – | – | Cc1ccc(NC(=O)c2ccc(C(=O)Nc3ccccc3N)s2)cc1Nc1nccc(-c2cccnc2)n1 [[26], N^2-(2-aminophenyl)-N^5-(4-methyl-3-(4-(pyridin-3-yl)pyrimidin-2-ylamino)phenyl)thiophene-2,5-dicarboxamide] | ≥ 2.95e-06 | – | 3 to 780 | 490 to 4070 | –
9 | – | 2100 to 71000 | – | Nc1ccccc1NC(=O)c1ccc(C(=O)Nc2cccc(Nc3nc(-c4cccnc4)cs3)c2)cc1 [[18], N^1-(2-aminophenyl)-N^4-(3-(4-(pyridin-3-yl)thiazol-2-ylamino)phenyl)terephthalamide hydrate] | – | – | – | – | –
10 | 148 to 150 | – | – | Nc1ccccc1NC(=O)c1ccc(C(=O)Nc2cccc(Nc3nc(-c4cccnc4)cs3)c2)cn1 [[24], N^2-(2-aminophenyl)-N^5-(3-(4-(pyridin-3-yl)thiazol-2-ylamino)phenyl)pyridine-2,5-dicarboxamide] | – | – | – | 490 to 4070 | –
